Test system: A498 cells
Assay: In vivo animal efficacy study, subcutaneous tumor fragment xenograft
Parameters: species or system female athymic nude mice
Conditions: sunitinib 20 mg/kg, bezafibrate 150 mg/kg, p.o. q.d. × 21
Experimental: Healthy 10 female athymic nude mice were recruited for the donor cell inoculation. Animals were subcutaneously injected at flank region with 10 million A498 cells suspended in 200 μl of media and matrigel. Animals were monitored for solid tumor growth. […] Tumors were fragmented in to ˜30 mg size. […] [table] The tumor sizes were measured weekly twice from the date of tumor appearance till the end of the experiment. Tumor size was measured by digital vernier caliper (MITUTOYO) by measuring length (L=longest axis) and width (W=shortest axis). Tumor Volume (V) was calculated using formula: […] Mean tumor volume and % tumor growth inhibition (% TGI) were then calculated (SEM=standard error of mean).

SMILES: CCN(CC)CCNC(=O)c1c(C)[nH]c(/C=C2\C(=O)Nc3ccc(F)cc32)c1C [Sunitinib]
- Tumor Growth Inhibition (Day 1): 1.47%
- Tumor Volume, Mean (Day 1): 145.40 mm^3
- Tumor Growth Inhibition (Day 6): 47.31%
- Tumor Volume, Mean (Day 6): 174.90 mm^3
- Tumor Growth Inhibition (Day 9): 43.52%
- Tumor Volume, Mean (Day 9): 261.95 mm^3
- Tumor Growth Inhibition (Day 13): 44.80%
- Tumor Volume, Mean (Day 13): 340.62 mm^3
- Tumor Growth Inhibition (Day 16): 53.39%
- Tumor Volume, Mean (Day 16): 448.05 mm^3
- Tumor Growth Inhibition (Day 20): 50.78%
- Tumor Volume, Mean (Day 20): 630.25 mm^3
